Activity calls are given as the source filed them. No cut-off for these calls is given here. Where only a bound is given, the exact number is not on record here.

For series [1], the system named is MDA-MB-231. The series is described as follows: Cytotoxicity against human MDA-MB-231 cells assessed as reduction in cell viability incubated for 48 hrs by MTT assay. Type of series: functional, cell-based. The following applies: MDA-MB-231, 48 h.
Series [2] deals with HT-29. The series is described as follows: Cytotoxicity against human HT-29 cells assessed as reduction in cell viability incubated for 48 hrs by MTT assay. It is filed as functional, cell-based. The conditions noted are these: HT-29, 48 h. In general terms: Tetrazolium assays rely on reduction of a dye to a coloured formazan, in cell work by metabolically active cells.
Series [3] relates to NCI-H1299. As to the kind of experiment: Cytotoxicity against human H1299 cells with p53 R280K mutant assessed as reduction in cell viability incubated for 48 hrs by MTT assay. It is filed as functional, cell-based.
The subject of series [4] is MDA-MB-231. As to the kind of experiment: Cytotoxicity against human MDA-MB-231 cells with p53 knock down assessed as reduction in cell viability incubated for 48 hrs by MTT assay. It is filed as functional, cell-based.
Series [5] concerns NCI-H1299. As to the kind of experiment: Cytotoxicity against human H1299 cells assessed as reduction in cell viability incubated for 48 hrs by MTT assay. Type of series: functional, cell-based. The conditions noted are these: NCI-H1299, 48 h.
The nature of series [6]: Selectivity index, ratio of IC50 for African green monkey Vero cells to IC50 for human HT-29 cells. It is filed as toxicity. The conditions noted are these: Vero cells versus HT-29 cells, read-out: Ratio IC50.
Series [7] can be described thus: Selectivity index, ratio of IC50 for African green monkey Vero cells to IC50 for human H1299 cells. Type of series: toxicity. The conditions noted are these: Vero cells versus H1299 cells, read-out: Ratio IC50.
A short description of series [8]: Selectivity index, ratio of IC50 for African green monkey Vero cells to IC50 for human MDA-MB-231 cells. It is filed as toxicity. The following applies: Vero cells versus MDA-MB-231 cells, read-out: Ratio IC50.

For orientation: IC50 means the concentration needed to halve the response being measured. For the compound `CCCCn1cc(CO[C@H]2CC(=O)[C@@H]3OC[C@H]2O3)nn1`, the IC50 in series [1] amounted to 27.9 µM.
As to `O=C1C[C@H](OCc2cn(-c3cccc4ccccc34)nn2)[C@H]2CO[C@@H]1O2`, in series [1], the concentration for half-maximal inhibition (IC50) amounted to 21.9 µM.
Same read-out and setting: as for `O=C1C[C@H](OCc2cn(Cc3ccc4ccccc4c3)nn2)[C@H]2CO[C@@H]1O2`, the figure is 23.7 µM.
In the case of `O=C1C[C@H](OCc2cc(-c3ccccc3)no2)[C@H]2CO[C@@H]1O2`, the IC50 in series [2] was determined as 16.9 µM; in series [1], 21.9 µM; in series [5], 9.8 µM. Further, the “cytotoxicity activity call (active/inactive)” value in series [3] was “Active”. Moreover, the inhibition entry in series [4] was “inactive”.
For `CCCCCCCCn1cc(CO[C@H]2CC(=O)[C@@H]3OC[C@H]2O3)nn1`, in series [1], the IC50 was over 50 µM.
With `O=C1C[C@H](OCc2cc(-c3ccc([N+](=O)[O-])cc3)no2)[C@H]2CO[C@@H]1O2`, the results for the IC50 in series [2], in series [1] and in series [5] were 19.8 µM, 16.5 µM and 11.2 µM, respectively. Further, the “cytotoxicity activity call (active/inactive)” value in series [3] is “Active”. Further, in series [4], the inhibition result was “inactive”.
Turning to `O=C1C[C@H](OCc2cn(-c3ccc(F)cc3)nn2)[C@H]2CO[C@@H]1O2`, the IC50 in series [1] turned out to be 23.7 µM.
Same read-out and setting: as for `O=C1C[C@H](OCc2cn(-c3ccccc3Br)nn2)[C@H]2CO[C@@H]1O2`, the figure is 22.5 µM; as for `O=C1C[C@H](OCc2cn(-c3cccc(Cl)c3Cl)nn2)[C@H]2CO[C@@H]1O2`, 26 µM.
Regarding `O=C1C[C@H](OCc2cc(C3CCCCC3)no2)[C@H]2CO[C@@H]1O2`, the 50% inhibitory concentration (IC50) turned out to be 9 µM in series [2], 15.8 µM in series [1] and 6.1 µM in series [5]. The “cytotoxicity activity call (active/inactive)” value in series [3] is “Active”. Besides, the inhibition entry in series [4] was “inactive”.
For the compound `O=C1C[C@H](OCc2cn(Cc3ccc([N+](=O)[O-])cc3)nn2)[C@H]2CO[C@@H]1O2`, the IC50 in series [1] was found to be 25.4 µM.
In the case of `O=C1C[C@H](OCc2cc(/C=C/c3ccccc3)no2)[C@H]2CO[C@@H]1O2`, the IC50 turned out to be 13.7 µM in series [2], 22.9 µM in series [1] and 7.1 µM in series [5]. For the same compound, the “cytotoxicity activity call (active/inactive)” value in series [3] is “Active”. Further, the inhibition entry in series [4] is “inactive”.
Consider `O=C1C[C@H](OCc2cn(-c3ccccc3Cl)nn2)[C@H]2CO[C@@H]1O2`, for which the IC50 in series [1] came out at 26.4 µM.
As to `CCCCCCCCn1cc(CN(C(C)=O)[C@H]2CC(=O)[C@@H]3OC[C@H]2O3)nn1`, in series [1], the 50% inhibitory concentration (IC50) was over 50 µM.
Turning to `CC(=O)N(Cc1cn(Cc2ccccc2)nn1)[C@H]1CC(=O)[C@@H]2OC[C@H]1O2`, in series [1], the IC50 is over 50 µM.
As for `O=C1C[C@H](OCc2cn(-c3ccc([N+](=O)[O-])cc3)nn2)[C@H]2CO[C@@H]1O2`, the IC50 in series [2] was 18.3 µM; in series [1] it was 24.8 µM; in series [5], 10.3 µM. In series [3], the “cytotoxicity activity call (active/inactive)” value was “Active”. Moreover, the inhibition result in series [4] is “inactive”.
Consider `COc1ccc(Cn2cc(CO[C@H]3CC(=O)[C@@H]4OC[C@H]3O4)nn2)cc1`, for which the IC50 in series [1] was determined as 34.8 µM.
Same read-out and setting: next, `O=C(Cn1cc(CO[C@H]2CC(=O)[C@@H]3OC[C@H]2O3)nn1)c1ccccc1`: 25.9 µM.
Turning to `C=C(C)Cn1cc(CO[C@H]2CC(=O)[C@@H]3OC[C@H]2O3)nn1`, the values for the IC50 in series [2], in series [1] and in series [5] were 17.2 µM, 26.7 µM and 14.3 µM, respectively. In series [3], the “cytotoxicity activity call (active/inactive)” value was “Active”. The inhibition result in series [4] was “inactive”.
For `COc1ccc(/C=C/c2cc(CO[C@H]3CC(=O)[C@@H]4OC[C@H]3O4)on2)cc1`, the IC50 in series [1] is 26.4 µM.
Turning to `O=C1C[C@H](OCc2cn(-c3ccc(Cl)cc3)nn2)[C@H]2CO[C@@H]1O2`, the half-inhibitory concentration (IC50) in series [2] was determined as 14.7 µM; in series [1] it was 26.1 µM; in series [5] it was 10.6 µM. For the same compound, the “cytotoxicity activity call (active/inactive)” value in series [3] was “Active”. Further, the inhibition entry in series [4] was “inactive”.
On to `COC(=O)Cn1cc(CN(C(C)=O)[C@H]2CC(=O)[C@@H]3OC[C@H]2O3)nn1`, for which, in series [1], the IC50 is over 50 µM.
As for `O=C1C[C@H](OCc2cc(-c3ccc(Cl)o3)no2)[C@H]2CO[C@@H]1O2`, the IC50 in series [2] was determined as 10.1 µM; in series [1], 13.8 µM; in series [5] it was 7.6 µM. Besides, the “cytotoxicity activity call (active/inactive)” value in series [3] was “Active”. Further, in series [4], the inhibition entry is “inactive”.
`O=C1C[C@H](OCc2cn(C(=O)OCC3c4ccccc4-c4ccccc43)nn2)[C@H]2CO[C@@H]1O2`: the values for the selectivity ratio in series [6], in series [7] and in series [8] were 6, 5 and over 2, respectively. The results for the IC50 in series [2], in series [1] and in series [5] were 15.6 µM, 18.6 µM and 9 µM, respectively. Besides, the “cytotoxicity activity call (active/inactive)” value in series [3] was “Active”. Further, the inhibition entry in series [4] is “inactive”.
Take `O=C1C[C@H](OCc2cc(-c3ccc4ccccc4c3)no2)[C@H]2CO[C@@H]1O2`: in series [1], the IC50 was found to be 21.2 µM.
Same read-out and setting: next, `O=C1CCCCC1n1cc(CO[C@H]2CC(=O)[C@@H]3OC[C@H]2O3)nn1` (some centres undefined): 36 µM; `CC(=O)N(Cc1cn(CC(=O)c2ccccc2)nn1)[C@H]1CC(=O)[C@@H]2OC[C@H]1O2`: over 50 µM.
As to `O=C1C[C@H](OCc2cc(-c3ccc(Cl)cc3)no2)[C@H]2CO[C@@H]1O2`, the figures for the IC50 in series [2], in series [1] and in series [5] were 14.5 µM, 17.9 µM and 9 µM, respectively. In series [3], the “cytotoxicity activity call (active/inactive)” value is “Active”. Besides, in series [4], the inhibition result was “inactive”.
In the case of `COc1ccc(-c2cc(CO[C@H]3CC(=O)[C@@H]4OC[C@H]3O4)on2)cc1`, in series [1], the IC50 is 21.9 µM.
For `COC(=O)Cn1cc(CO[C@H]2CC(=O)[C@@H]3OC[C@H]2O3)nn1`, in series [1], the IC50 worked out at 21.3 µM.
On to `O=C1C[C@H](OCc2cn(C3CCCCC3)nn2)[C@H]2CO[C@@H]1O2`, for which the selectivity ratio in series [6] was 6; in series [7] it was 5; in series [8], over 2. Moreover, the IC50 was 11.9 µM in series [2], 24.3 µM in series [1] and 12 µM in series [5]. Also, the “cytotoxicity activity call (active/inactive)” value in series [3] is “Active”. Further, the inhibition entry in series [4] is “inactive”.
For the compound `O=C(O)c1ccc(-n2cc(CO[C@H]3CC(=O)[C@@H]4OC[C@H]3O4)nn2)cc1`, in series [1], the IC50 is 23.2 µM.
On the same count and under the same terms, next, `O=C1C[C@H](OCc2cc(-c3cc(C(F)(F)F)cc(C(F)(F)F)c3)no2)[C@H]2CO[C@@H]1O2`: 23.9 µM; `O=C1C[C@H](OCc2cn(Cc3ccccc3)nn2)[C@H]2CO[C@@H]1O2`: over 50 µM.
For `O=C1C[C@H](OCc2cn(-c3ccccc3)nn2)[C@H]2CO[C@@H]1O2`, the IC50 in series [2] amounted to 13.4 µM; in series [1] it was 25.2 µM; in series [5], 10.9 µM. In series [3], the “cytotoxicity activity call (active/inactive)” value is “Active”. In series [4], the inhibition result was “inactive”.

The values are drawn from ChEMBL document CHEMBL4622906, “Design, synthesis and evaluation of novel levoglucosenone derivatives as promising anticancer agents” (Bioorg Med Chem Lett, 2020).
